{"source": "patent US8778941B2", "about": "“TRPM8 antagonists and their use in treatments” (AMGEN Inc., priority 2011, dated 2014)"}
{"target": "T1, human TRPM8 (Homo sapiens, UniProt Q7Z2W7)", "T1 construct": "expressed in transfected cells; host or cells: Chinese hamster ovary (CHO) cells, T-REx tetracycline-inducible expression system (Invitrogen), co-transfected with pcDNA3.1 jellyfish aequorin", "T1 sequence (Q7Z2W7 whole entry)": "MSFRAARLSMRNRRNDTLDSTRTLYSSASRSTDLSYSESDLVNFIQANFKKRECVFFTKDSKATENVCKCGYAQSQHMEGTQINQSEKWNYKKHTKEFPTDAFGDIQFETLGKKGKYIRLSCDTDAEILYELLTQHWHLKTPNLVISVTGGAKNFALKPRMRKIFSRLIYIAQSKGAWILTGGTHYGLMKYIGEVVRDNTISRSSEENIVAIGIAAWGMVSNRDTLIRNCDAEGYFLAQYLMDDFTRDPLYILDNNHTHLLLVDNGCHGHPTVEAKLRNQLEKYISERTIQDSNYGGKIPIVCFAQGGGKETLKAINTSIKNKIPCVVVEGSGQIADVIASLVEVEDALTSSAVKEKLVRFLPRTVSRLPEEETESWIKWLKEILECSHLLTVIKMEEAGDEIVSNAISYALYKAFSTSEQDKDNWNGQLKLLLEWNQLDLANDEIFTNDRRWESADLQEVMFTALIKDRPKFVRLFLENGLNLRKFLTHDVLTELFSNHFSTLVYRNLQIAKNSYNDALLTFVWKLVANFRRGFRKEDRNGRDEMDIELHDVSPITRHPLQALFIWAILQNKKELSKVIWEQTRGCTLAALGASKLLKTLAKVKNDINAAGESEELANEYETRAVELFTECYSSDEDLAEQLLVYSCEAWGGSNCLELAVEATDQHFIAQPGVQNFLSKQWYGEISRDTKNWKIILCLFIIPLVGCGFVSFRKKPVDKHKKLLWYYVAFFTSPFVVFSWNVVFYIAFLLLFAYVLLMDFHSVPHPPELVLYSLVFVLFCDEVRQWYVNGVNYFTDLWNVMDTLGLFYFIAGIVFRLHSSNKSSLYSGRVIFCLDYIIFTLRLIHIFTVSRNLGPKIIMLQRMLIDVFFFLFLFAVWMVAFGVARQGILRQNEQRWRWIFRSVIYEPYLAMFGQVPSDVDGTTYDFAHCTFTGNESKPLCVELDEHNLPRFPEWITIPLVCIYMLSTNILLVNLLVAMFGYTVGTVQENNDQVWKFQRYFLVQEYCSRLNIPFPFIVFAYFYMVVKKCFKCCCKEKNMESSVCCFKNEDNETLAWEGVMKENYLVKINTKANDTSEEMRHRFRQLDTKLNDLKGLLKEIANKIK", "assay": "Luminescence readout assay for measuring intracellular calcium (aequorin), hTRPM8 antagonism", "type": "cell-based", "conditions": "CHO cell line expressing human TRPM8 and aequorin; activation by icilin, L-menthol or cold buffer (table does not say which)", "units": {"IC50": "nM"}}
{"smiles": "O=C(Nc1cccc([N+](=O)[O-])c1)N[C@@H](c1ccc(C(F)(F)F)cc1)c1ncccc1C(F)(F)F", "note": "[Example 100, (S)-1-(3-nitrophenyl)-3-((4-(trifluoro-methyl)-phenyl)(3-(trifluoro-methyl)-pyridin-2-yl)-methyl)urea (2,2,2-trifluoro-acetate)]", "IC50": 142}
{"smiles": "Cn1ccc(NC(=O)N[C@@H](c2ccc(C(F)(F)F)cc2)c2ncccc2F)cc1=O", "note": "[Example 161, (S)-1-((3-fluoropyridin-2-yl)(4-(trifluoro-methyl)-phenyl)-methyl)-3-(1-methyl-2-oxo-1,2-dihydropyridin-4-yl)urea]", "IC50": 1250}
{"smiles": "COc1cc([N+](=O)[O-])ccc1NC(=O)N[C@@H](c1ccc(C(F)(F)F)cc1)c1ncccc1C(F)(F)F", "note": "[Example 141, (S)-1-(2-methoxy-4-nitrophenyl)-3-((4-(trifluoro-methyl)-phenyl)(3-(trifluoro-methyl)-pyridin-2-yl)-methyl)urea (2,2,2-trifluoro-acetate)]", "IC50": 360}
{"smiles": "Cc1nc(-c2cccc(NC(=O)N[C@@H](c3ccc(C(F)(F)F)cc3)c3ncccc3C(F)(F)F)c2)no1", "note": "[Example 77, (S)-1-(3-(5-methyl-1,2,4-oxadiazol-3-yl)phenyl)-3-((4-(trifluoro-methyl)-phenyl)(3-(trifluoro-methyl)-pyridin-2-yl)-methyl)urea (2,2,2-trifluoro-acetate)]", "IC50": 235}
{"smiles": "O=C(Nc1cncnc1)N[C@@H](c1ccc(C(F)(F)F)c(F)c1)c1ncccc1C(F)(F)F", "note": "[Example 155, (S)-1-((3-fluoro-4-(trifluoro-methyl)-phenyl)(3-(trifluoro-methyl)-pyridin-2-yl)-methyl)-3-(pyrimidin-5-yl)urea (2,2,2-trifluoro-acetate)]", "IC50": 62}
{"smiles": "Cc1cc(C)cc(NC(=O)N[C@@H](c2ccc(C(F)(F)F)cc2)c2ncccc2C(F)(F)F)c1", "note": "[Example 106, (S)-1-(3,5-dimethylphenyl)-3-((4-(trifluoro-methyl)-phenyl)(3-(trifluoro-methyl)-pyridin-2-yl)-methyl)urea (2,2,2-trifluoro-acetate)]", "IC50": 494}
{"smiles": "CCOC(=O)c1ccc(NC(=O)N[C@@H](c2ccc(C(F)(F)F)cc2)c2ncccc2C(F)(F)F)cc1", "note": "[Example 187, (S)-ethyl 4-(3-((4-(trifluoro-methyl)phenyl) (3-(trifluoro-methyl)pyridin-2-yl)methyl)ureido)benzoate (2,2,2-trifluoro-acetate)]", "IC50": 1550}
{"smiles": "O=C(Nc1cccnc1)N[C@@H](c1cnc2c(F)cccc2c1)c1ncccc1C(F)(F)F", "note": "[Example 14, (S)-1-((8-fluoro-quinolin-3-yl)-(3-(trifluoro-methyl)-pyridin-2-yl)-methyl)-3-(pyridin-3-yl)-urea]", "IC50": 533}
{"smiles": "COc1ccc([C@H](NC(=O)Nc2cccnc2)c2ncccc2C(F)(F)F)cc1", "note": "[Example 2, (S)-1-((4-methoxy-phenyl)(3-(trifluoro-methyl)-pyridin-2-yl)-methyl)-3-(pyridin-3-yl)-urea]", "IC50": 230}
{"smiles": "O=C1Cc2ccc(NC(=O)N[C@@H](c3ccc(C(F)(F)F)cc3)c3ncccc3F)cc2N1", "note": "[Example 166, (S)-1-((3-fluoropyridin-2-yl)(4-(trifluoro-methyl)-phenyl)-methyl)-3-(2-oxoindolin-6-yl)urea]", "IC50": 86}
{"smiles": "CC(C)(C)NC(=O)N[C@@H](c1ccc(C(F)(F)F)cc1)c1ccccc1Br", "note": "[Example 116, (S)-1-((2-bromophenyl) (4-(trifluoro-methyl)-phenyl)-methyl)-3-tert-butylurea]", "IC50": 133}
{"smiles": "O=C(N[C@@H](c1ccc(C(F)(F)F)cc1)c1ncccc1C(F)(F)F)N[C@H]1CCc2ccccc21", "note": "[Example 129, 1-((S)-2,3-dihydro-1H-inden-1-yl)-3-((S)-(4-(trifluoro-methyl)-phenyl)(3-(trifluoro-methyl)-pyridin-2-yl)-methyl)urea (2,2,2-trifluoro-acetate)]", "IC50": 2000}
{"smiles": "CC(C)[C@H](C)NC(=O)N[C@@H](c1ccc(C(F)(F)F)cc1)c1ncccc1C(F)(F)F", "note": "[Example 65, 1-((S)-3-methylbutan-2-yl)-3-((S)-(4-(trifluoro-methyl)-phenyl)(3-(trifluoro-methyl)-pyridin-2-yl)-methyl)urea (2,2,2-trifluoro-acetate)]", "IC50": 141}
{"smiles": "O=C(Nc1cccnc1)NC(c1ccc(C(F)(F)F)cc1)c1cccnc1Br", "note": "(stereo not shown) [Example 114, 1-((2-bromopyridin-3-yl)(4-(trifluoro-methyl)-phenyl)-methyl)-3-(pyridin-3-yl)-urea (2,2,2-trifluoro-acetate)]", "IC50": 886}
{"smiles": "Cc1cc(C)c(NC(=O)N[C@@H](c2ccc(C(F)(F)F)cc2)c2ncccc2C(F)(F)F)c(C)c1", "note": "[Example 186, (S)-1-mesityl-3-((4-(trifluoro-methyl)phenyl) (3-(trifluoro-methyl)pyridin-2-yl)methyl)urea (2,2,2-trifluoro-acetate)]", "IC50": 1110}
{"smiles": "COc1cccc([C@H](C)NC(=O)N[C@@H](c2ccc(C(F)(F)F)cc2)c2ncccc2C(F)(F)F)c1", "note": "[Example 84, 1-((S)-1-(3-methoxy-phenyl)ethyl)-3-((S)-(4-(trifluoro-methyl)-phenyl)(3-(trifluoro-methyl)-pyridin-2-yl)-methyl)urea (2,2,2-trifluoro-acetate)]", "IC50": 767}
{"smiles": "CCOC(=O)c1cccc(NC(=O)N[C@@H](c2ccc(C(F)(F)F)cc2)c2ncccc2C(F)(F)F)c1", "note": "[Example 90, (S)-ethyl 3-(3-((4-(trifluoro-methyl)-phenyl)(3-(trifluoro-methyl)-pyridin-2-yl)-methyl)-ureido)-benzoate (2,2,2-trifluoro-acetate)]", "IC50": 646}
{"smiles": "CCc1cccc(C(C)C)c1NC(=O)N[C@@H](c1ccc(C(F)(F)F)cc1)c1ncccc1C(F)(F)F", "note": "[Example 91, (S)-1-(2-ethyl-6-isopropylphenyl)-3-((4-(trifluoro-methyl)-phenyl)(3-(trifluoro-methyl)-pyridin-2-yl)-methyl)urea (2,2,2-trifluoro-acetate)]", "IC50": 670}
{"smiles": "O=C(Nc1ccc(F)c([N+](=O)[O-])c1)N[C@@H](c1ccc(C(F)(F)F)cc1)c1ncccc1C(F)(F)F", "note": "[Example 139, (S)-1-(4-fluoro-3-nitrophenyl)-3-((4-(trifluoro-methyl)-phenyl)(3-(trifluoro-methyl)-pyridin-2-yl)-methyl)urea (2,2,2-trifluoro-acetate)]", "IC50": 1310}
{"smiles": "COc1cccc2cc([C@H](NC(=O)Nc3cccnc3)c3ncccc3C(F)(F)F)cnc12", "note": "[Example 16, (S)-1-((8-methoxy-quinolin-3-yl)-(3-(trifluoro-methyl)-pyridin-2-yl)-methyl)-3-(pyridin-3-yl)-urea]", "IC50": 2260}
{"smiles": "Cc1ccc(NC(=O)N[C@@H](c2ccc(C(F)(F)F)cc2)c2ncccc2C(F)(F)F)cc1[N+](=O)[O-]", "note": "[Example 140, (S)-1-(4-methyl-3-nitrophenyl)-3-((4-(trifluoro-methyl)-phenyl)(3-(trifluoro-methyl)-pyridin-2-yl)-methyl)urea (2,2,2-trifluoro-acetate)]", "IC50": 1300}
{"smiles": "O=C(Nc1cccc2ncccc12)N[C@@H](c1ccc(C(F)(F)F)cc1)c1ncccc1C(F)(F)F", "note": "[Example 179, (S)-1-(Quinolin-5-yl)-3-((4-(trifluoromethyl)phenyl)(3-(trifluoromethyl)pyridin-2-yl)methyl)urea]", "IC50": 77}
{"smiles": "O=C(Nc1cccnc1)N[C@@H](c1ccc(C(F)(F)F)cc1)c1ccccc1Br", "note": "[Example 115, (S)-1-((2-bromophenyl) (4-(trifluoro-methyl)-phenyl)-methyl)-3-(pyridin-3-yl)-urea 2,2,2-trifluoro-acetate (2,2,2-trifluoro-acetate)]", "IC50": 154}
{"smiles": "COc1cccc(NC(=O)N[C@@H](c2ccc(C(F)(F)F)cc2)c2ncccc2C(F)(F)F)c1", "note": "[Example 52, (S)-1-(3-methoxy-phenyl)-3-((4-(trifluoro-methyl)-phenyl)(3-(trifluoro-methyl)-pyridin-2-yl)-methyl)urea (2,2,2-trifluoro-acetate)]", "IC50": 61}
{"smiles": "CC(C)(C)c1ccccc1NC(=O)N[C@@H](c1ccc(C(F)(F)F)cc1)c1ncccc1C(F)(F)F", "note": "[Example 71, (S)-1-(tert-butylphenyl)-3-((4-(trifluoro-methyl)-phenyl)(3-(trifluoro-methyl)-pyridin-2-yl)-methyl)urea (2,2,2-trifluoro-acetate)]", "IC50": 5710}
{"smiles": "CCc1cccc(C)c1NC(=O)N[C@@H](c1ccc(C(F)(F)F)cc1)c1ncccc1C(F)(F)F", "note": "[Example 89, (S)-1-(2-ethyl-6-methylphenyl)-3-((4-(trifluoro-methyl)-phenyl)(3-(trifluoro-methyl)-pyridin-2-yl)-methyl)urea (2,2,2-trifluoro-acetate)]", "IC50": 330}
{"smiles": "O=C(Nc1ccnc2ccccc12)N[C@@H](c1ccc(C(F)(F)F)cc1)c1ncccc1C(F)(F)F", "note": "[Example 60, (S)-1-(quinolin-4-yl)-3-((4-(trifluoro-methyl)-phenyl)(3-(trifluoro-methyl)-pyridin-2-yl)-methyl)urea]", "IC50": 182}
{"smiles": "O=C(Nc1ccc2ncccc2c1)N[C@@H](c1ccc(C(F)(F)F)cc1)c1ncccc1C(F)(F)F", "note": "[Example 58, (S)-1-(quinolin-6-yl)-3-((4-(trifluoro-methyl)-phenyl)(3-(trifluoro-methyl)-pyridin-2-yl)-methyl)urea]", "IC50": 562}
{"smiles": "O=C(Nc1cccnc1)N[C@@H](c1cccc(C(F)(F)F)c1)c1ncccc1C(F)(F)F", "note": "[Example 9, (S)-1-((3-(trifluoro-methyl)-phenyl)(3-(trifluoro-methyl)-pyridin-2-yl)-methyl)-3-(pyridin-3-yl)-urea]", "IC50": 175}
{"smiles": "COc1ccc(NC(=O)N[C@@H](c2ccc(C(F)(F)F)cc2)c2ncccc2C(F)(F)F)cc1OC", "note": "[Example 74, (S)-1-(3,4-dimethoxy-phenyl)-3-((4-(trifluoro-methyl)-phenyl)(3-(trifluoro-methyl)-pyridin-2-yl)-methyl)urea (2,2,2-trifluoro-acetate)]", "IC50": 112}
{"smiles": "O=C(Nc1cccnc1)N[C@@H](c1cnc2ccccc2c1)c1ncccc1C(F)(F)F", "note": "[Example 6, (S)-1-(pyridin-3-yl)-3-(quinolin-3-yl(3-(trifluoro-methyl)-pyridin-2-yl)-methyl)urea]", "IC50": 259}
